Data on five compounds can be found in patent publication US9266868B2, “Crystalline form of rivaroxaban dihydrate” (SANDOZ AG, priority 2010, dated 2016).

For series [1] the following is noted: cited from earlier work; for solubility (in words): WO 2007/039132, CHMP assessment report EMEA/H/C/000944.
Series [2] can be described thus: Polymorphic stability of Rivaroxaban dihydrate on storage (infrared spectroscopy). To be noted: about 25° C., relative humidity of about 76%, 6 weeks. Type of series: physicochemical. How it is done: Infrared spectra (IR) were collected on a MKII Golden Gate™ Single Reflection Diamond ATR (attenuated total reflection) cell with a Bruker Tensor 27 FTIR spectrometer with 4 cm-1 resolution at ambient conditions. To collect a spectrum a spatula tip of a sample was applied to the surface of the diamond in powder form. Then the sample was pressed onto the diamond with a sapphire anvil and the spectrum was recorded. A spectrum of the clean diamond was used as background spectrum. A typical precision of the wavenumber values is in the range of about ±2 cm-1. Thus, an infrared peak that appears at 1716 cm-1 can appear between 1714 and 1718 cm-1 on most infrared spectrometers under standard conditions. […]

The nature of series [3]: Moisture desorption isotherm / exposure to low relative humidity. Format: physicochemical. To be noted: for relative humidity at which the dihydrate converts to an anhydrate form: 25° C., FIG. 7. How it is done: The moisture desorption isotherm were recorded with a SPS-11 moisture sorption analyzer (MD Messtechnik, Ulm, and D). The measurement cycle was performed by a decrease relative humidity (RH) in 10% steps. The equilibrium condition for each step was set to a mass constancy of ±0.001% over 50 min. The temperature was 25° C.±01° C.

The structures appear in SMILES notation.

Take `O=C(NC[C@H]1CN(c2ccc(N3CCOCC3=O)cc2)C(=O)O1)c1ccc(Cl)s1` [Form I of Rivaroxabin, 5-Chloro-N-({(5S)-2-oxo-3-[4-(3-oxomorpholin-4-yl]phenyl)-1,3-oxazolidin-5-yl}methyl)thiophene-2-carboxamide]: in series [1], the “solubility (in words)” value is reported as “relatively low solubility”.
Consider `O=C(NC[C@H]1CN(c2ccc(N3CCOCC3=O)cc2)C(=O)O1)c1ccc(Cl)s1` [Modification II], for which, in series [1] (described in WO 2007/039132), the “higher solubility compared to modification I” value is given as 4 fold.
Regarding `O=C(NC[C@H]1CN(c2ccc(N3CCOCC3=O)cc2)C(=O)O1)c1ccc(Cl)s1` [amorphous form], in series [1], the “solubility (in words)” value was “higher solubility in comparison to modification I”.
As to `O=C(NC[C@H]1CN(c2ccc(N3CCOCC3=O)cc2)C(=O)O1)c1ccc(Cl)s1` [crystalline dihydrate of Rivaroxaban, Rivaroxaban Dihydrate], the “polymorphic stability on storage” value in series [2] (listed as Rivaroxaban Dihydrate) was “polymorphic stable”; in series [2] (listed as crystalline dihydrate) it was “does not convert to other polymorphic forms”. Moreover, the “relative humidity at which the dihydrate converts to an anhydrate form” value is reported as “less than 20%” in series [3] and “about 25%” in series [3] (listed as dihydrate of Rivaroxaban). Moreover, the “exposure time to low relative humidity sufficient for transformation into anhydrate form” value in series [3] (less than 20% relative humidity) is listed as “about one”.
Take `O=C(NC[C@H]1CN(c2ccc(N3CCOCC3=O)cc2)C(=O)O1)c1ccc(Cl)s1.O=CO` [formic acid solvate of Rivaroxaban, Rivaroxaban.Formic Acid Solvate]: the “stability on storage at low relative humidity” value (less than about 20% relative humidity at 25° C.) is given as “stable”. Further, the “behaviour on storage at higher relative humidity” value (relative humidity of more than 20%, e.g. 30%, 60% or 97%) was “formic acid is lost and the dihydrate of Rivaroxaban is formed”. Under “suspended in aqueous medium”, the “behaviour on suspending in aqueous medium” value was “pure dihydrate of Rivaroxaban is formed”.
